Measured values taken from patent US10617693B2, “Methods of treating and/or preventing actinic keratosis” (Athenex, Inc., priority 2017, dated 2020).

Legend:
[1] = system: skin of forearm or forehead of AK patients; assay: Comparison of skin reactions, photographs (FIGS. 3A-4B); assay type: in vivo, human
Description: The comparison in FIGS. 3A, 3B, 4A, and 4B illustrates the lack of skin toxicity observed in the treatment of AK with topically administered KX-01 compared to the approved therapy for AK.

[2] = system: AK lesions on the face or scalp; assay: Phase 2a study KX01-AK-002: AK lesion counts and clearance at day 57, 0.5 mg KX-01 on 25 cm^2; assay type: in vivo, human; conditions: for Subjects with 100% clearance of AK lesions on day 57 / Subjects with at least 75% reduction of AK lesions on day 57 / AK lesion count, median: Cohort 1 (5-day), interim
Description: An ongoing Phase 2a, open-label, multicenter, activity and safety study of KX-01 administered topically in subjects with AK on the face or scalp is described herein. […] Secondary objectives are to assess the activity of KX-01 administered topically during Days 1-57 based on reduction of AK lesion counts from baseline, assess the safety and tolerability and pharmacokinetics, and contrast the dose regimens (5-day treatment with 3-day treatment) in terms of activity and safety in subjects with AK on the face or scalp. This uncontrolled, nonrandomized trial is being conducted at 16 investigational sites in the United States. Enrollment is sequential for 2 cohorts of approximately 80 subjects each. Enrollment is closed for Cohort 1 and ongoing for Cohort 2. The two treatment cohorts are summarized below: • Cohort 1: 0.5 mg KX-01 administered topically to a contiguous treatment area of 25 cm^2 with 4-8 clinically typical AK lesions for 5 consecutive days • Cohort 2: 0.5 mg KX-01 administered topically to a contiguous treatment area of 25 cm^2 with 4-8 clinically typical AK lesions for 3 consecutive days
0.5 mg KX-01 is administered topically to an area of 25 cm^2 on the face or scalp by site staff on treatment days. […] AK lesion counts are recorded at baseline, days 8, 15, 29, and 57. […] Standardized photography of treatment area is performed at baseline, day 8 and day 57. Plasma samples are being collected at preplanned time points on days 1 and 5 for Cohort 1, and on days 1 and 3 for Cohort 2.
The Phase 2a trial described in Example 2a was completed with 84 eligible subjects enrolled in each of two cohorts: one cohort was subjected to the treatment for 5 consecutive days, and the other cohort was subjected to the treatment for 3 consecutive days. The results are described below and in FIG. 5.

O=C(Cc1ccc(-c2ccc(OCCN3CCOCC3)cc2)cn1)NCc1ccccc1 [KX-01]
Skin reaction in the forearm ([1]; day 3 and day 5 of treatment): minimal or no adverse skin reactions
Skin reaction in the forehead ([1]; day 8 and day 57, subject with 100% response): minimal or no adverse skin reactions
Skin reactions compared with Picato ([1]; in vivo): fewer and less severe skin reactions
Efficacy for clearing AK lesions compared with Picato ([1]; initial data of Examples 1, 2a, 2b): may be similar
Activity compared to Picato Phase 3 studies ([2]; 5-day regimen, cross-study tabulation): may be comparable
Subjects with 100% clearance of AK lesions on day 57 ([2]; face, 35 subjects): 43%
Subjects with at least 75% reduction of AK lesions on day 57 ([2]; face, 35 subjects): 60%
Subjects with 100% clearance of AK lesions on day 57 ([2]; overall, 67 subjects): 36%
Subjects with at least 75% reduction of AK lesions on day 57 ([2]; overall, 67 subjects): 51%
Subjects with 100% clearance of AK lesions on day 57 ([2]; scalp, 32 subjects): 28%
Subjects with at least 75% reduction of AK lesions on day 57 ([2]; scalp, 32 subjects): 41%
AK lesion count, median ([2]; Day 1): 6.0
AK lesion count, median ([2]; Day 8): 5.0
AK lesion count, median ([2]; Day 15): 4.0
AK lesion count, median ([2]; Day 29): 2.0
AK lesion count, median ([2]; Day 57): 2.0
Activity of 5-day versus 3-day regimen ([2]; Examples 1, 2a and 2b): greater activity than the 3-day regimen
